From patent US20140080758A1, “TREATMENT OF KIDNEY DISORDERS WITH VIP FRAGMENTS” (Vectus […] Limited, priority 2008, published 2014) come the findings set out here.

The test system of the assay is spontaneously hypertensive rats (SHR) on 2.2% salt diet. Description: Renal interstitial fibrosis after 4-week peptide infusion in SHR on 2.2% salt diet. It counts as in vivo, rat. As to conditions: infusion 5 pmol/kg/min intravenously by osmotic minipump for 4 weeks, versus vehicle control, fibrosis as percent surface area. An excerpt:
For kidney fibrosis experiments, two types of rats were used, spontaneously hypertensive rats (SHR) and normotensive control Wistar-Kyoto rats (WKY) (animals were obtained from Australian Animal Resources, Perth, Western Australia, Australia)
i) Male spontaneously hypertensive (SHR) rats on 2.2% salt diet ii) Male Wistar Kyoto (WKY) rats on 4.4% salt diets
Commencing at 12 weeks of age, the rats were acclimatized to tail cuff blood pressure measurements and handling for 2 weeks. They then underwent operative insertion of an osmotic minipump (Alzet—Manufacturer: Durect Corporation, Cupertino, Calif., USA; Supplier: Bioscientific Gymea, NSW, Australia) which was designed to deliver vehicle alone (Hartman's solution, Baxter Health Care Corporation, USA)—(Controls) or VIP, VIP fragment or analogue at a dose of 4 pmol/kg/min or 5 pmol/kg/min intravenously.
The infusion was continued for 4 weeks, during which the rats were weighed and their blood pressures measured twice weekly. At the end of the 4 week infusion period, the rats were anaesthetized and their kidneys harvested. […]
For quantitation of interstitial fibrosis, twenty microscopic fields from each kidney were digitized and the amount of fibrosis in each determined as percent surface area using Image-Pro Plus V5.0 software (Cybernetics). The mean value for each rat and subsequently for each infusion group was then determined.

For “His-Ser-Asp-Ala-Val-Phe-Thr-Asp-Asn-Tyr-Thr-Arg-Leu-Arg-Lys-Gln-Met-Ala-Val-Lys-Lys-Tyr-Leu-Asn-Ser-Ile-Leu-Asn (HSDAVFTDNYTRLRKQMAVKKYLNSILN; listed as Homo sapiens) [VIP]”, the renal interstitial fibrosis entry was “reductions in renal interstitial fibrosis”.
